The values that follow come from patent US6956139B2, “(1R, 2S, 5R)-3-1-menthoxyalkan-1-OL cooling sensate” (Takasago International Corporation, priority 2000, dated 2005).

This test deals with evaluators. The test can be described thus: Six evaluators swished a 150 ppm solution of each compound; flavor quality and cooling reported at intervals after spitting out. The conditions noted are these: for quality of the flavor and cooling characteristics, 30 Minutes: 10 ml of 150 ppm solution swished 15 seconds and spit out, 30 minutes after spitting out; for cooling lasting (duration) / Peak cool at (time): 10 ml of 150 ppm solution swished 15 seconds, time after spitting out. In kind it is in vivo, human. The method, then: The enantiomeric compounds of the present invention, Examples 1 through 3 (E1, E2 and E3), were tested against the prior art racemic mixture of 2-(5-methyl-2-(methylethyl)-cyclohexyloxy)-ethan-1-ol (C1). Six evaluators swished 10 ml of a 150 ppm solution of each compound for 15 seconds and spit out. The quality of the flavor and cooling characteristics were reported at various intervals after spitting out.

On to `CC1CCC(C(C)C)C(OCCO)C1` (centres unmarked) [Example C1, (d,l)-2-(5′-methyl-2′-(methylethyl)cyclohexyloxy)ethan-1-ol, reference compound], for which the “quality of the flavor and cooling characteristics, 30 Minutes” value (“quality” below) was “no cooling”; the “cooling lasting (duration)” value was in the range of 10 to 15 min.
For the compound `CC(C)[C@@H]1CC[C@@H](C)C[C@H]1OCCO` [Example E1, [1′R,2′S,5′R]-2-(5′-methyl-2′-(methylethyl)cyclohexyloxy)ethan-1-ol], the “quality” value is on record as “cooling”; the “Peak cool at (time)” value came out at 15 min.
As to `CC(C)[C@@H]1CC[C@@H](C)C[C@H]1OCCCO` [Example E2, [1′R,2′S,5′R]-3-(5′-methyl-2′-(methylethyl)cyclohexyloxy)propan-1-ol], the “Peak cool at (time)” value is 10 to 13 min and the “cooling lasting (duration)” value is listed as “cooling 30+ min”.
For the compound `CC(C)[C@@H]1CC[C@@H](C)C[C@H]1OCCCCO` [Example E3, [1′R,2′S,5′R]-4-(5′-methyl-2′-(methylethyl)cyclohexyloxy)butan-1-ol], the “quality” value is recorded as “cooling”; the “Peak cool at (time)” value turned out to be 7 min.
